Measurements: patent US20250197356A1, “METHOD FOR SYNTHESIZING NUCIFERINE OR DERIVATIVE THEREOF, DERIVATIVE OF NUCIFERINE AND USE THEREOF” (HUAQIAO UNIVERSITY, priority 2022, published 2025)
Like-named read-outs stand apart in the source and are kept apart here.

Columns and labels:
hyperlipidemia rats [1] = test: Liver tissue homogenate biochemical indicators in high-fat diet hyperlipidemia rats; assay type: in vivo, SD rats; details: liver tissue, 20 mg/(kg d) by gastric gavage, 4 weeks, x ± s, n = 9
Text: (§1) Animals: 54 SPF-grade SD rats, weighing 120±10 g, provided by Laboratory Animal Business Department, Shanghai Family Planning Research Institute, China, Animal license number: SCXK(Shanghai)2018-0006.
(§2) Drug to be tested: Nuciferine purchased from Shanghai Aladdin Biochemical Technology Co., Ltd., China, and its derivatives (purity >99%) that were synthesized in the laboratory by the methods of Examples 2-7.
(§3) Other reagents: AST, ALT, TC, TG, NEFA, Bun, Cr, CAT, GSH-Px, GSH, MDA test kits, purchased from Nanjing Jiancheng Bioengineering Institute, China; HL and PL test kits, purchased from Jianglai Biotechnology Co., Ltd., China; experimental reagents such as anhydrous ethanol, xylene, isopropanol neutral gum, purchased from Sinopharm Chemical Reagent Co., Ltd., China; HE dye solution, DAB color development agent, and oil red O dye solution, purchased from KeyGEN Biotechnology Co., Ltd, China; Antibodies IL-6 and TNF-α, purchased from Abcam Limited.
(§4) Modeling scheme: 54 adult rats of 120±10 g were selected and fed adaptively for three days. They were then randomly divided to 6 groups, 9 animals for each group. They were blank control group, model group, positive control group, nuciferine group, and nuciferine structural modification group. The blank control group was fed with normal diet. […] The feeding and modeling time was 5 weeks. Within 4 weeks after modeling, continuous administration was performed: the blank control group and model group were given 0.2 mL of distilled water by gastric gavage; the positive control group was administrated 20 mg/(kg d) of simvastatin; while the treatment group was administrated 20 mg/(kg d) of nuciferine or 20 mg/(kg d) of a derivative of nuciferine (compounds 6a-6f).
(§5) Liver tissue sample collection: the rats were killed by dislocation, and the liver was taken out immediately after death, which was observed by naked eye to find out whether there was abnormal color and lesions, and was then rinsed with ice normal saline. The left lobe of the liver was quickly cut into small pieces and fixed in 10% formaldehyde overnight for sectioning. The tissue of the right lobe of the liver was quickly wrapped in tin box and stored at −80° C. for later use.
Preparation of 10% liver homogenate: the liver wrapped in tin box and stored in the ultra-low temperature freezer at −80° C. was taken out, and quickly placed on an ice box. 0.2 g of liver tissue was accurately taken, and ice normal saline with a volume 9 times that of the liver issue was added thereto. 10% tissue homogenate was formed by grounding and mixing, and then centrifuged at 3000 r/min and 4° C. for 10 min. The supernatant was collected for later use.
(§6) Biochemical indicator determination: indicators AST, ALT, TC, TG, NEFA, Bun, Cr, CAT, GSH-Px, GSH, MDA, HL, PL were determined according to the instructions of the kits.

hyperlipidemia rats [2] = test: Serum biochemical indicators in high-fat diet hyperlipidemia rats; assay type: in vivo, SD rats; details: serum, 20 mg/(kg d) by gastric gavage, 4 weeks; for ALT (U/L) / AST (U/L) / Bun / Cr: x ± s, n = 9
Text: as §1, §2, §3, §4
Blood sample collection: 24 h after the last gastric gavage administration, eyeballs were taken out and blood was drawn. Whole blood was collected in an EP tube, and centrifuged at 3000 r/min and 4° C. for 10 min, and the supernatant was collected and stored at −20° C. for blood biochemical indicator test.
as §6

hyperlipidemia rats [3] = test: Liver and kidney indexes in high-fat diet hyperlipidemia rats; assay type: in vivo, SD rats; details: 20 mg/(kg d) by gastric gavage, 4 weeks, x ± s, n = 9
Text: as §1
(§7) Modeling scheme: 54 adult rats of 120±10 g were selected and fed adaptively for three days. They were then randomly divided to 6 groups, 9 animals for each group. They were blank control group, model group, positive control group, nuciferine group, and nuciferine structural modification group. The blank control group was fed with normal diet. […] The feeding and modeling time was 5 weeks.
as §5

[4] = cited from earlier work
hyperlipidemia rats [5] = test: Liver appearance and HE histopathological observation in hyperlipidemia rats; assay type: in vivo, SD rats; details: compared with the model group, 20 mg/(kg d)
Text: as §1, §7, §5

[6] = TCMSP database, screening threshold OB ≥30%

Compound | CAT (U/mgprot) (hyperlipidemia rats [1]) | GSH (μmol/gprot) (hyperlipidemia rats [1]) | GSH-Px (U/mgprot) (hyperlipidemia rats [1]) | HL (U/mgprot) (hyperlipidemia rats [1]) | LPL (U/mgprot) (hyperlipidemia rats [1]) | MDA (nmol/mgprot) (hyperlipidemia rats [1]) | NEFA (μmol/g prot) (hyperlipidemia rats [1]) | TG (mmol/g prot) (hyperlipidemia rats [1]) | LDL-C (hyperlipidemia rats [2]) | TC (hyperlipidemia rats [2]) | TG (hyperlipidemia rats [2]) | ALT (U/L) (hyperlipidemia rats [2]) | AST (U/L) (hyperlipidemia rats [2]) | Bun (hyperlipidemia rats [2]) | Cr (hyperlipidemia rats [2]) | Kidney index (%) (hyperlipidemia rats [3]) | Liver index (%) (hyperlipidemia rats [3]) | OB/% (oral bioavailability) [4, 6] | further results
CCC(C)(C)C(=O)O[C@H]1C[C@@H](C)C=C2C=C[C@H](C)[C@H](CC[C@@H]3C[C@@H](O)CC(=O)O3)[C@H]21 [Simvastatin, simvastatin, reference compound] | 29.35 ± 7.00 U/mgprot | 341.36 ± 98.66 μmol/gprot | 708.02 ± 47.00 U/mgprot | 0.45 ± 0.11 U/mgprot | 0.50 ± 0.06 U/mgprot | 0.84 ± 0.19 nmol/mgprot | 103.22 ± 8.89 μmol/g prot | 0.09 ± 0.01 mmol/g prot | 0.62 ± 0.17 mmol/L | 2.00 ± 0.19 mmol/L | 0.47 ± 0.05 mmol/L | 13.74 ± 4.06 U/L | 7.57 ± 1.78 U/L | 3.98 ± 0.43 mmol/L | 53.79 ± 7.58 µmol/L | 0.68 ± 0.03 % | 4.47 ± 0.36 % |  | 
Oc1cc(O)c2c(c1)OC(c1ccc(O)c(O)c1)C(O)C2O (single isomer, unassigned; (+)) [(+)-Leucocyanidin] |  |  |  |  |  |  |  |  |  |  |  |  |  |  |  |  |  | 37.61% | 
COc1ccc(C(=O)N2CCc3cc(OC)c(OC)c4c3C2Cc2ccccc2-4)cc1 (stereo not drawn) [Compound 6e, p-Methoxybenzoylnuciferine] | 26.34 ± 4.54 U/mgprot | 363.09 ± 71.72 μmol/gprot | 537.18 ± 34.93 U/mgprot | 0.37 ± 0.07 U/mgprot | 0.28 ± 0.04 U/mgprot | 1.02 ± 0.73 nmol/mgprot | 107.69 ± 6.44 μmol/g prot | 0.10 ± 0.02 mmol/g prot | 0.56 ± 0.08 mmol/L | 1.95 ± 0.13 mmol/L | 0.55 ± 0.05 mmol/L | 15.54 ± 8.69 U/L | 7.65 ± 2.26 U/L | 3.43 ± 0.27 mmol/L | 52.90 ± 2.21 µmol/L | 0.68 ± 0.05 % | 4.58 ± 0.27 % |  | 
(−)-catechin |  |  |  |  |  |  |  |  |  |  |  |  |  |  |  |  |  |  | OB/% (oral bioavailability) ([4]; po): 49.68%
COc1cc2c3c(c1OC)-c1ccccc1CC3N(C(=O)c1ccc(F)cc1)CC2 (stereo not drawn) [Compound 6b, p-Fluorobenzoylnuciferine] | 25.90 ± 4.29 U/mgprot | 365.04 ± 71.78 μmol/gprot | 532.14 ± 30.92 U/mgprot | 0.51 ± 0.05 U/mgprot | 0.29 ± 0.10 U/mgprot | 1.03 ± 0.33 nmol/mgprot | 106.32 ± 22.95 μmol/g prot | 0.13 ± 0.02 mmol/g prot | 0.68 ± 0.16 mmol/L | 2.01 ± 0.14 mmol/L | 0.57 ± 0.08 mmol/L | 16.43 ± 9.51 U/L | 7.91 ± 2.21 U/L | 3.48 ± 0.24 mmol/L | 53.90 ± 1.81 µmol/L | 0.68 ± 0.02 % | 4.58 ± 0.23 % |  | Liver appearance (photographs, FIG. 8) (hyperlipidemia rats [5]): more brittle
COc1cc(-c2oc3cc(O)cc(O)c3c(=O)c2O)ccc1O [isorhamnetin] |  |  |  |  |  |  |  |  |  |  |  |  |  |  |  |  |  | 49.6% | 
CC(C)=CCC[C@@H](C)[C@H]1CC[C@@]2(C)[C@@H]3CC[C@H]4C(C)(C)[C@@H](O)CC[C@@]45C[C@@]35CC[C@]12C [Cycloartenol] |  |  |  |  |  |  |  |  |  |  |  |  |  |  |  |  |  | 38.69% | 
COc1cc2c(cc1O)C(Cc1ccc(O)cc1)NCC2 (stereo not drawn) [Machiline] |  |  |  |  |  |  |  |  |  |  |  |  |  |  |  |  |  | 79.64% | 
COc1cc2c3c(c1OC)-c1ccccc1CC3N(C(=O)c1ccccc1C)CC2 (stereo not drawn) [Compound 6d, o-Methylbenzoylnuciferine] | 25.78 ± 2.67 U/mgprot | 360.02 ± 43.63 μmol/gprot | 562.93 ± 68.91 U/mgprot | 0.37 ± 0.08 U/mgprot | 0.42 ± 0.06 U/mgprot | 0.95 ± 0.48 nmol/mgprot | 106.32 ± 22.95 μmol/g prot | 0.13 ± 0.02 mmol/g prot | 0.68 ± 0.15 mmol/L | 2.03 ± 0.09 mmol/L | 0.57 ± 0.07 mmol/L | 15.62 ± 9.43 U/L | 7.78 ± 2.27 U/L | 3.56 ± 0.19 mmol/L | 53.82 ± 6.13 µmol/L | 0.68 ± 0.04 % | 4.58 ± 0.24 % |  | 
CN1CCc2cc3c(c4c2C1Cc1ccccc1-4)OCO3 (stereo not drawn) [Remerin] |  |  |  |  |  |  |  |  |  |  |  |  |  |  |  |  |  | 40.75% | 
COc1cc2c(cc1OC)C(Cc1ccc(O)cc1)N(C)CC2 (stereo not drawn) [Armepavine] |  |  |  |  |  |  |  |  |  |  |  |  |  |  |  |  |  | 69.31% | 
COc1cc2c3c(c1OC)-c1ccccc1CC3N(C(C)=O)CC2 (stereo not drawn) [Compound 6f, Acetylnuciferine] | 27.42 ± 2.82 U/mgprot | 361.04 ± 43.65 μmol/gprot | 560.90 ± 62.45 U/mgprot | 0.56 ± 0.06 U/mgprot | 0.26 ± 0.08 U/mgprot | 0.98 ± 0.56 nmol/mgprot | 106.32 ± 22.95 μmol/g prot | 0.13 ± 0.02 mmol/g prot | 0.69 ± 0.16 mmol/L | 2.02 ± 0.16 mmol/L | 0.58 ± 0.07 mmol/L | 16.73 ± 9.74 U/L | 7.74 ± 2.22 U/L | 3.62 ± 0.15 mmol/L | 52.82 ± 4.36 µmol/L | 0.68 ± 0.03 % | 4.58 ± 0.25 % |  | 
o-Nornuciferine |  |  |  |  |  |  |  |  |  |  |  |  |  |  |  |  |  | 33.52% | 
CN1CCc2cc(O)c(O)cc2[C@@H]1Cc1ccc(O)cc1 [(1S)-1-(4-hydroxybenzyl)-2-methyl-3,4-dihydro-1H-isoquinoline-6,7-diol] |  |  |  |  |  |  |  |  |  |  |  |  |  |  |  |  |  | 67.14% | 
Oc1cc(O)c2c(c1)O[C@@H](c1ccc(O)c(O)c1)[C@@H](O)C2 [ent-Epicatechin] |  |  |  |  |  |  |  |  |  |  |  |  |  |  |  |  |  |  | OB/% (oral bioavailability) ([4]; po): 48.96%
Oc1cc(O)c2c(c1)O[C@@H](c1cc(O)c(O)c(O)c1)[C@@H](O)[C@@H]2O [leucodelphinidin] |  |  |  |  |  |  |  |  |  |  |  |  |  |  |  |  |  | 30.02% | 
COc1cc2c3c(c1OC)-c1ccccc1CC3N(C(=O)c1ccc(C)cc1)CC2 (stereo not drawn) [Compound 6c, p-Methylbenzoylnuciferine] | 27.43 ± 3.14 U/mgprot | 374.63 ± 137.14 μmol/gprot | 567.63 ± 51.57 U/mgprot | 0.44 ± 0.78 U/mgprot | 0.50 ± 0.07 U/mgprot | 0.94 ± 0.38 nmol/mgprot | 107.69 ± 6.44 μmol/g prot | 0.10 ± 0.02 mmol/g prot | 0.54 ± 0.08 mmol/L | 1.93 ± 0.16 mmol/L | 0.56 ± 0.07 mmol/L | 16.44 ± 8.69 U/L | 7.86 ± 2.24 U/L | 3.45 ± 0.51 mmol/L | 51.39 ± 5.83 µmol/L | 0.68 ± 0.03 % | 4.58 ± 0.26 % |  | 
